From the supplement of paper PMC10307832

What was measured:
Assay in all cases: relative viability (nuclei count vs DMSO), 5 days (fraction); higher = more cells survive
[1] = test system: NCI-H322M
Outline: (§1)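 A single step with final 0.05% Triton X-100, 1% formaldehyde and 1 ug/ml Hoechst fixed the cells and stained nuclei 5 days after treatment. Lung cancer cell lines in 1536-well plates had been treated by pin tool the day after seeding with one drug alone or a fixed anchor-drug dose plus five library-drug doses (not always all listed) in √10 steps, and nuclei were counted on 4× images. Relative viability is the ratio of nuclei in treated wells to nuclei in vehicle wells, taken as the median of duplicate plates.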

[2] = test system: 201T
Outline: as §1

[3] = test system: CAL-12T
Outline: as §1

[4] = test system: LCLC-97TM1
Outline: as §1

[5] = test system: NCI-H1395
Outline: as §1

[6] = test system: NCI-H1437
Outline: as §1

[7] = test system: NCI-H1793
Outline: as §1

[8] = test system: BEN
Outline: as §1

[9] = test system: LXF-289
Outline: as §1

[10] = test system: NCI-H1650
Outline: as §1

[11] = test system: NCI-H2087
Outline: as §1

[12] = test system: NCI-H727
Outline: as §1

[13] = test system: HOP-62
Outline: as §1

[14] = test system: RERF-LC-KJ
Outline: as §1

[15] = test system: NCI-H1355
Outline: as §1

[16] = test system: SK-LU-1
Outline: as §1

[17] = test system: NCI-H3122
Outline: as §1

[18] = test system: NCI-H2023
Outline: as §1

[19] = test system: HCC-44
Outline: as §1

[20] = test system: NCI-H2405
Outline: as §1

[21] = test system: NCI-H2228
Outline: as §1

[22] = test system: NCI-H647
Outline: as §1

[23] = test system: HCC-827
Outline: as §1

C[C@@H]1CN(CC(=O)Nc2ccc3c(c2)Cc2cccc(-c4cc(=O)cc(N5CCOCC5)o4)c2S3)C[C@H](C)O1 + CS(=O)(=O)CCNCc1ccc(-c2ccc3ncnc(Nc4ccc(OCc5cccc(F)c5)c(Cl)c4)c3c2)o1 [Lapatinib] (partner 2 µM)
relative viability ([1]; first compound 0.04 µM): 0.39
relative viability ([1]; first compound 0.1265 µM): 0.587
relative viability ([1]; first compound 0.4 µM): 0.626
relative viability ([1]; first compound 4 µM): 0.535
relative viability ([2]; first compound 0.04 µM): 1.07
relative viability ([2]; first compound 0.1265 µM): 0.976
relative viability ([2]; first compound 0.4 µM): 1.08
relative viability ([2]; first compound 4 µM): 0.988
relative viability ([3]; first compound 0.04 µM): 0.28
relative viability ([3]; first compound 0.1265 µM): 0.69
relative viability ([3]; first compound 0.4 µM): 0.667
relative viability ([3]; first compound 4 µM): 0.636
relative viability ([4]; first compound 0.1265 µM): 0.851
relative viability ([4]; first compound 0.4 µM): 0.867
relative viability ([4]; first compound 4 µM): 0.858
relative viability ([5]; first compound 0.04 µM): 0.928
relative viability ([5]; first compound 0.1265 µM): 1
relative viability ([5]; first compound 0.4 µM): 1.06
relative viability ([5]; first compound 4 µM): 0.93
relative viability ([6]; first compound 0.04 µM): 0.758
relative viability ([6]; first compound 0.1265 µM): 0.703
relative viability ([6]; first compound 0.4 µM): 0.834
relative viability ([6]; first compound 4 µM): 0.702
relative viability ([7]; first compound 0.04 µM): 0.809
relative viability ([7]; first compound 0.1265 µM): 0.743
relative viability ([7]; first compound 0.4 µM): 0.734
relative viability ([7]; first compound 4 µM): 0.649
relative viability ([8]; first compound 0.04 µM): 0.609
relative viability ([8]; first compound 0.1265 µM): 0.666
relative viability ([8]; first compound 0.4 µM): 0.738
relative viability ([8]; first compound 4 µM): 0.745
relative viability ([9]; first compound 0.04 µM): 0.879
relative viability ([9]; first compound 0.1265 µM): 0.962
relative viability ([9]; first compound 0.4 µM): 0.904
relative viability ([9]; first compound 4 µM): 0.835
relative viability ([10]; first compound 0.04 µM): 0.287
relative viability ([10]; first compound 0.1265 µM): 0.812
relative viability ([10]; first compound 0.4 µM): 0.719
relative viability ([10]; first compound 4 µM): 0.588
relative viability ([11]; first compound 0.04 µM): 1.06
relative viability ([11]; first compound 0.1265 µM): 1.01
relative viability ([11]; first compound 0.4 µM): 1.13
relative viability ([11]; first compound 4 µM): 0.798
relative viability ([12]; first compound 0.04 µM): 0.9
relative viability ([12]; first compound 0.1265 µM): 0.801
relative viability ([12]; first compound 0.4 µM): 0.78
relative viability ([12]; first compound 4 µM): 0.752
relative viability ([13]; first compound 0.04 µM): 0.549
relative viability ([13]; first compound 0.1265 µM): 1.01
relative viability ([13]; first compound 0.4 µM): 1.19
relative viability ([13]; first compound 4 µM): 0.953
relative viability ([14]; first compound 0.04 µM): 0.873
relative viability ([14]; first compound 0.1265 µM): 0.877
relative viability ([14]; first compound 0.4 µM): 0.808
relative viability ([14]; first compound 4 µM): 0.799
relative viability ([15]; first compound 0.04 µM): 0.713
relative viability ([15]; first compound 0.1265 µM): 0.992
relative viability ([15]; first compound 0.4 µM): 0.816
relative viability ([15]; first compound 4 µM): 0.97
relative viability ([16]; first compound 0.04 µM): 0.869
relative viability ([16]; first compound 0.1265 µM): 0.959
relative viability ([16]; first compound 0.4 µM): 0.877
relative viability ([16]; first compound 4 µM): 0.707
relative viability ([17]; first compound 0.04 µM): 1.05
relative viability ([17]; first compound 0.1265 µM): 1.01
relative viability ([17]; first compound 0.4 µM): 1.07
relative viability ([17]; first compound 4 µM): 0.988
relative viability ([18]; first compound 0.04 µM): 0.176
relative viability ([18]; first compound 0.1265 µM): 0.793
relative viability ([18]; first compound 0.4 µM): 0.536
relative viability ([18]; first compound 4 µM): 0.719
relative viability ([19]; first compound 0.04 µM): 0.94
relative viability ([19]; first compound 0.1265 µM): 1.02
relative viability ([19]; first compound 0.4 µM): 1.07
relative viability ([19]; first compound 4 µM): 0.922
relative viability ([20]; first compound 0.04 µM): 0.879
relative viability ([20]; first compound 0.1265 µM): 1.11
relative viability ([20]; first compound 0.4 µM): 1.04
relative viability ([20]; first compound 4 µM): 1.07
relative viability ([21]; first compound 0.04 µM): 1.23
relative viability ([21]; first compound 0.1265 µM): 1.05
relative viability ([21]; first compound 0.4 µM): 0.974
relative viability ([21]; first compound 4 µM): 0.618
relative viability ([22]; first compound 0.04 µM): 1.02
relative viability ([22]; first compound 0.1265 µM): 1.07
relative viability ([22]; first compound 0.4 µM): 1.16
relative viability ([22]; first compound 4 µM): 0.638
relative viability ([23]; first compound 0.04 µM): 0.172
relative viability ([23]; first compound 0.1265 µM): 0.191
relative viability ([23]; first compound 0.4 µM): 0.212
relative viability ([23]; first compound 4 µM): 0.19
